Source: BindingDB's records for doi:10.1124/jpet.104.066787 (Georgetown University, 2004)
“And” between values parts separate entries of the source, which are not always exact repeats. Equal entries are not always repeated.

Legend:
[1] = target: Neuronal acetylcholine receptor subunit alpha-3 (Rattus norvegicus, UniProt P04757)
[2] = target: Neuronal acetylcholine receptor subunit alpha-2 (Rattus norvegicus, UniProt P12389)
[3] = target: Neuronal acetylcholine receptor subunit alpha-4 (Rattus norvegicus, UniProt P09483)
[4] = target: Nicotinic acetylcholine receptor (Rattus norvegicus)

Sequence of Neuronal acetylcholine receptor subunit alpha-2 (P12389 whole entry): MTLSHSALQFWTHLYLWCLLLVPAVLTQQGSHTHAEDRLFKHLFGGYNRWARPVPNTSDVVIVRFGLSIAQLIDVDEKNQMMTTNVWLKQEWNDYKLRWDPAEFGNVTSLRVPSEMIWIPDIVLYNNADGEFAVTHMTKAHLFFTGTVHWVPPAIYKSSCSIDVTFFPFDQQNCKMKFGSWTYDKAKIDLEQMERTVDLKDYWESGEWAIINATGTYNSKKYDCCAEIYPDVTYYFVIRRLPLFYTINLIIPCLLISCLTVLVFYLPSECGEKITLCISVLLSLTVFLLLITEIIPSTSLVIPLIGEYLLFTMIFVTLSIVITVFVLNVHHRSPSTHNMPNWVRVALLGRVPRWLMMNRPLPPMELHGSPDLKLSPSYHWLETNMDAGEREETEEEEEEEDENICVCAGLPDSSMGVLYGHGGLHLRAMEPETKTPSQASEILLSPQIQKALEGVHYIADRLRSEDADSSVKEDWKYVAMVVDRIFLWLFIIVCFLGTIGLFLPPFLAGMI
Sequence of Neuronal acetylcholine receptor subunit alpha-4 (P09483 whole entry): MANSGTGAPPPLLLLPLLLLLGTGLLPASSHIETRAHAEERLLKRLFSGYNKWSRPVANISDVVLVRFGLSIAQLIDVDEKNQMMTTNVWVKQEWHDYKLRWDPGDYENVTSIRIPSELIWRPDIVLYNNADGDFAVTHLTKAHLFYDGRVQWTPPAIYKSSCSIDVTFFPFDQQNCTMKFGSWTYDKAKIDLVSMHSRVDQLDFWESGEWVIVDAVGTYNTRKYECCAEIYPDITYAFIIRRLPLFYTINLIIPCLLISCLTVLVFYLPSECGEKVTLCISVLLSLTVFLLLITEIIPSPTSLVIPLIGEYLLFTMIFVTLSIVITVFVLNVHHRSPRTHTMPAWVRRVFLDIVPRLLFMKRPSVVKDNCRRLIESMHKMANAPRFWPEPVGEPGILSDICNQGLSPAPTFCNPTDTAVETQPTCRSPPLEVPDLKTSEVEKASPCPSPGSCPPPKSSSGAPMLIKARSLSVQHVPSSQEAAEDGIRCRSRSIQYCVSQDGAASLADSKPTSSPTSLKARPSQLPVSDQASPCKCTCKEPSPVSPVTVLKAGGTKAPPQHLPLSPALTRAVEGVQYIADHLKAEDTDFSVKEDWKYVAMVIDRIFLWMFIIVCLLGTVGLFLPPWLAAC
Sequence of Neuronal acetylcholine receptor subunit alpha-3 (P04757 whole entry): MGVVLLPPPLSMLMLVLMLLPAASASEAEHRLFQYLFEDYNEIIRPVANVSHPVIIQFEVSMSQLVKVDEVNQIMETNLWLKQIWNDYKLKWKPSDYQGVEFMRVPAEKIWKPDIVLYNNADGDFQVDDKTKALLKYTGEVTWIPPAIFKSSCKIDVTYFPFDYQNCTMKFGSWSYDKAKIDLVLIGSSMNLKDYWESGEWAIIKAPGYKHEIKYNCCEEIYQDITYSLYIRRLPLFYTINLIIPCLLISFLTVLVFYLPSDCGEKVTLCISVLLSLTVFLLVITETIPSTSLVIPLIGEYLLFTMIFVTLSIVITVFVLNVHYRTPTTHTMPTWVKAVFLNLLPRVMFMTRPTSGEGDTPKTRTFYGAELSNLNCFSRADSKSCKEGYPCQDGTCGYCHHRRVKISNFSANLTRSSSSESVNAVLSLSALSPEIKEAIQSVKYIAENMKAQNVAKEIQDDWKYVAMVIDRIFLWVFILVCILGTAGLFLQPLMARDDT

**Q.** Which Ki [1] does the source give for `CO[C@H]1CC=C2CCN3CCC4=C(CC(=O)OC4)[C@]23C1` here?
**A.** Its Ki is 3800 nM and > 10000 nM.

**Q.** What about the Ki [2] of the same compound?
**A.** The Ki was 6200 nM and > 10000 nM.

**Q.** How did the Ki [2] turn out when `CC(=O)OCC[N+](C)(C)C` [2-acetoxyethyl(trimethyl)ammonium;perchlorate] was run?
**A.** The Ki was 11 nM.

**Q.** `C[N+](C)(C)CCO` [2-hydroxy-N,N,N-trimethylethanaminium] was tested. Which Ki [3] did it give?
**A.** Its Ki is > 10000 nM.

**Q.** What about the Ki [1] of the same compound?
**A.** Its Ki is > 10000 nM.

**Q.** And the Ki [2]?
**A.** The Ki was > 10000 nM.

**Q.** What does the source list for `C[N+](C)(C)CCOC(N)=O` [(2-Hydroxyethyl)trimethyl ammonium chloride carbamate]?
**A.** Ki [3]: 590 nM and 1100 nM; Ki [1]: 1100 nM and 4700 nM; Ki [2]: 260 nM and 930 nM

**Q.** `c1cncc(OCC2CCN2)c1` (stereo unspecified) [A-85380] was tested. Which Ki [2] did it give?
**A.** Its Ki is 18 nM.

**Q.** How did the Ki [3] turn out when `O=c1cccc2n1CC1CNCC2C1` (stereo unspecified) [CAS_485-35-8] was run?
**A.** Its Ki is 1.5 nM and 2.1 nM.

**Q.** What about the Ki [1] of the same compound?
**A.** Its Ki is 37 nM and 220 nM.

**Q.** And the Ki [2]?
**A.** Its Ki is 1.1 nM and 5.4 nM.

**Q.** For `CCN1CC2(COC(=O)c3ccccc3-n3c(O)cc(C)c3O)CCC(OC)C34C5CC6C(OC)CC(O)(C5C6OC)C(O)(C(OC)C23)C14` (stereo unspecified) [CAS_21019-30-7], which Ki [3] is on record?
**A.** The Ki was > 10000 nM and 6400 nM.

**Q.** And the Ki [2]?
**A.** The Ki was > 10000 nM.

**Q.** Which Ki [3] does the source give for `Ic1ccc(C2CC3CCC2N3)cn1` (stereo unspecified) [IPH] here?
**A.** Its Ki is 0.15 nM.

**Q.** What about the Ki [1] of the same compound?
**A.** Its Ki is 0.18 nM and 0.98 nM.

**Q.** And the Ki [2]?
**A.** The Ki was 0.11 nM and 0.15 nM.

**Q.** What about the Ki [4] of the same compound?
**A.** Its Ki is 0.33 nM.

**Q.** With `CNC1(C)C2CCC(C2)C1(C)C` (stereo unspecified) [Methyl-(2,3,3-trimethyl-bicyclo[2.2.1]hept-2-yl)-amine(Mecamylamine)] as the compound, how does the Ki [3] read?
**A.** Its Ki is > 10000 nM.

**Q.** What about the Ki [2] of the same compound?
**A.** Its Ki is > 10000 nM.
